From paper PMC7274485, “A symbiotic bacterium of shipworms produces a compound with broad spectrum anti-apicomplexan activity” (PLoS Pathogens, 2020)
“Also recorded” adds a separate entry of the source. Read-outs that look alike come from different tables or passages of the source.

Legend:
Theileria equi = Theileria equi 72 hr in vitro parasite growth inhibition assay; assay type: cell-based
Protocol: The effect of trtE on proliferation of T. equi was evaluated in a 72 hr in vitro parasite growth inhibition assay performed as previously described using the USDA Florida strain of T. equi.
A. Bovine turbinate cells infected with luciferase expressing Sarcocystis neurona merozoites were treated with trtE for 24 hours and parasite growth evaluated by luciferase expression. […] B. Theileria equi-infected erythrocytes were incubated with trtE or DMSO vehicle control and proliferation was measured after 72 hours by SYBR green incorporation. Percent proliferation was calculated relative to DMSO treated controls. […] (DOCX) Click here for additional data file.

B. bigemina = assay: B. bigemina-infected erythrocyte proliferation, SYBR green incorporation; assay type: cell-based; conditions: Babesia bigemina, infected erythrocytes, 72 hours, read-out: EC50 against B. bigemina
Protocol: B. bovis and B. bigemina inhibitor response assays were adapted from components of [79–81]. B. bovis and B. bigemina parasites were maintained in bovine erythrocytes under microaerophilic stationary phase conditions in vitro as described elsewhere. Prior to use in growth studies parasites were grown in erythrocytes from which leukocytes were depleted. Cultures were set up at 0.20% parasitized erythrocytes, in quadruplicate, in complete medium supplemented with trtE. Final concentration of DMSO in all cultures was 1%, and was consistent throughout. Following 72h growth under 90% nitrogen, 5% oxygen, 5% carbon dioxide cells were harvested by thorough resuspension, and transferred to a black, opaque 96-well plate. Cells were freeze-thawed at -80°C overnight, then mixed with an equal volume of SYBR Green lysis buffer. Lysis buffer was composed of 20 mM Tris, pH 7.5, 5 mM EDTA, 0.008% (w/v) saponin, 0.08% (v/v) NP40, and contained 0.2 μl 10,000x SYBR Green I dye ml^-1 (S7563; Invitrogen; Carlsbad, CA). Plates were incubated for one hour at room temperature in the dark prior to reading in a microplate reader, at 485 nm excitation and 528 nm emission wavelengths.

Cryptosporidium parvum = assay: Neonatal mouse model of Cryptosporidium parvum infection; assay type: in vivo, mice; conditions: for Number of parasites in the intestine (histology infection score): 2 mg/kg orally every 12 hours, four doses, 5 days post infection, purification method 1
Protocol: Of all apicomplexans that infect both humans and domesticated animals, Cryptosporidium is a particular challenge for human and veterinary medicine as there is currently no effective treatment for this parasite. We chose to evaluate the in vivo efficacy of trtE using a neonatal mouse model of C. parvum infection. […] In a preliminary experiment, ten, 8 day old mice were infected with C. parvum and then treated with four doses of 2 mg/kg of trtE (purification method 1) given orally every 12 hours for 2 days. Control mice received DMSO vehicle control. Five days post infection, mice were euthanized and the intestines processed for histology. Infection was scored by visual evaluation of infection intensity throughout the intestine by an investigator blinded to treatment. […] Eight-day-old mice, infected with C. parvum, were treated orally twice daily with trtE at 0.4, 4 or 40 mg/kg beginning two days post-infection and continuing for 2 days. On day 5, mice were euthanized and intestines processed for quantitative PCR to quantify infection.
8-day-old mice were infected with 5x10^4 oocysts by oral gavage. In the initial preliminary experiment using trtE purified by method 1, mice were treated 48 hrs post infection with 2 mg/kg trtE every 12 hours by oral gavage for a total of 4 treatments. Control mice received vehicle control (DMSO diluted in DMEM containing 10% fetal calf serum). Mice were sacrificed 5 days post infection and intestines prepared for histological evaluation. Slides were blinded and the intensity of infection scored in the terminal jejunum, ileum, caecum and colon as previously described. Infection intensity scores for each region were added together to give a total infection score for the animal.
In the second set of experiments, mice were infected and treated as before, with 0.4, 4 or 40 mg/kg of trtE purified using method 2. Control mice received vehicle control in parallel. Mice were sacrificed 5 days post-infection and infection quantified by qPCR as previously described. The experiment was conducted three times.

For `CC1CCC=CC=CCCC(O)CC(=O)CC2CCC(C)C3(O2)O[B-]24OC(C(=O)O1)C1(OC(CCC1C)CC(=O)CC(O)CCC=CC=CCCC(C)OC(=O)C3O2)O4` (stereo not drawn) [trtE, tartrolon E], the EC50 (Theileria equi; Erythrocyte, infected erythrocytes, 72 hours, read-out: EC50 against T. equi) was 391 pM, the EC50 (Theileria equi; Table 1, rounded, read-out: EC50 against T. equi (Table 1)) was 400 pM and the EC50 (B. bigemina) was 9300 pM. For the same molecule, the “Number of parasites in the intestine (histology infection score)” value (Cryptosporidium parvum) was “significantly reduced the number of parasites”, the “Number of parasites in the intestine (histology infection score)” value (Cryptosporidium parvum; listed as TrtE) was “significantly reduced the number of parasites in the intestine” and the “Reduction of intestinal Cryptosporidium infection (qPCR)” value (Cryptosporidium parvum; 4 mg/kg orally twice daily for 2 days from two days post-infection, day 5, purification method 2) was 85%. For the same molecule, the “Intestinal Cryptosporidium infection (qPCR)” value (Cryptosporidium parvum; 40 mg/kg orally twice daily for 2 days from two days post-infection, day 5, purification method 2) was “nearly eliminated”, the “Overt signs of toxicity in neonatal mice (discussion)” value (Cryptosporidium parvum; four doses of 40 mg/kg over two days) was “did not exhibit overt signs of toxicity” and the “Overt signs of toxicity in trtE treated neonatal mice” value (Cryptosporidium parvum; oral doses up to 40 mg/kg twice daily for 2 days) was “no overt toxicity was observed; also recorded: did not observe overt toxicity; also recorded: no overt signs of toxicity”.
